Patent US20250017938A1, “COMBINATION THERAPIES OF FASN INHIBITORS WITH THYROID HORMONE RECEPTOR AGONISTS” (Sagimet Biosciences Inc., priority 2023, published 2025)
pIC50: −log10 of the molar value.

Columns and labels:
[1] = molecular target: FASN enzyme isolated from SKBr3 cells (Homo sapiens (Human), UniProt P49327); experiment: FASN biochemical activity (fluorescence measurement of CoA release, CPM dye)
[2] = test system: primary isolated human stellate cells (HSC); experiment: Primary human hepatic stellate cells stimulated with TGF-β1, total collagen (in vitro fibrosis study); type: cell-based; conditions: primary human hepatic stellate cells, 10 ng/ml TGF-β, 4 days
Method: Primary isolated human stellate cells (HSC) were investigated in the study. The cells were maintained under standard culture conditions and in established culture medium.
Study Model: Viability screening and in vitro fibrosis study, 24 well plate format, 4 day stimulation with recombinant human TGF-β1. In this study, 2.5 and 10 ng/ml TGF-β1 were used.
(§1) Primary HSCs were seeded on t=day-1 and cultured in 24 well plates for 24 hours. […] Cells were incubated for an additional 96 hours (t=day 4). Conditioned medium samples were collected for expression analysis of secreted proteins. All wells were used for an alamarBlue assay to assess cell viability/metabolic activity. A separate plate was used at t=day 0 as reference for the alamarBlue assay. Next, the cell-matrix fraction was collected for measurement of total collagen and cell protein levels.
Both test compounds were dissolved in DMSO. Working concentrations were prepared from a stock concentration that is 1000-fold that of the highest working concentration. All controls were incubated with the same DMSO concentration as that present in the highest working concentration.
Total Collagen assay was performed according to the manufacturer's protocol.
Total Protein assay, for use with the Total Collagen assay, was performed according to the manufacturer's protocol. Protein levels were used to correct for differences in cell contents between samples.
Significance of differences between the groups was calculated either parametrically or non-parametrically, using the computer program SPSS. For nonparametric calculations, a Kruskal-Wallis test for several independent samples was used, followed by a Mann-Whitney U-test for independent samples. For parametric calculations, a One-way ANOVA for multiple comparisons was used, followed by Dunnett or Bonferroni's correction.

[3] = test system: Male C57BL/6J Gubra-Amylin-MASH (GAN) diet-induced obese mice; experiment: Gubra-Amylin-MASH (GAN) diet-induced obese mice with biopsy-confirmed MASH, 6 weeks treatment; type: in vivo, mouse; conditions: 6-week treatment; for response rate (RR) for reduction of NAS ≥2-points: TVB-3664 5 mg/kg, resmetirom 3 mg/kg PO QD
Description: This study was designed to evaluate FASN inhibitor alone and in combination with RES on liver histology in biopsy-confirmed MASH mice.
Method: Male C57BL/6J Gubra-Amylin-MASH (GAN) diet-induced obese mice with histologically confirmed NAS (≥5) and fibrosis stage (F1-F3) were randomized and treated with either TVB-3664 (a surrogate FASN inhibitor for denifanstat, 5 mg/kg, PO, QD) or resmetirom (RES; MGL-3196)(3 mg/kg, PO, QD) individually or in combination for 6 weeks (n=10-12 for each group, Gubra, Denmark). Treatment groups are NC (normal chow diet control); VEH (MASH vehicle control); FASN (TVB-3664, FASN inhibitor, surrogate for denifanstat); RES (resmetirom) and COMBO (combination of TVB-3664 and resmetirom).

[4] = test system: Male Ldlr -/-. Leiden mice fed with fast food diet (FFD); experiment: LDL receptor knockout (Ldlr-/-.Leiden) NASH mice on fast food diet, 10 weeks treatment; type: in vivo, mouse; conditions: for plasma ALT/AST / plasma total cholesterols / plasma triglycerides: TVB-3664 5 mg/kg, resmetirom 3 mg/kg PO QD alone or in combination, 4 weeks, sustained to 10 weeks; for LDL-C / VLDL-C: lipoprotein analysis
Description: This study was designed to evaluate FASN inhibitor alone and in combination with resmetirom on plasma biomarkers and liver histology in LDL receptor knockout (Ldlr−/−. Leiden) NASH mice. FASN inhibitor and resmetirom were also evaluated in vitro in hepatic stellate cells (HSCs) for direct anti-fibrotic effects.
Male Ldlr −/−. Leiden mice were fed with fast food diet (FFD) for 18 weeks to induce NASH features and treated with either TVB-3664 (a surrogate FASN inhibitor for denifanstat, 5 mg/kg, PO, QD) or THRb agonist resmetirom (MGL-3196, 3 mg/kg, PO, QD) alone or in combination for 10 weeks. Endpoints included liver enzymes, lipids and liver histology. Primary human HSCs were stimulated by TGF-b1 and treated with denifanstat or resmetirom at various concentrations (TNO, Netherlands).

[5] = test system: primary isolated human stellate cells (HSC); experiment: Primary human hepatic stellate cells stimulated with TGF-β1, PAI-1 secretion; type: cell-based; conditions: primary human HSCs, TGF-b1-stimulated
Method: as §1

[6] = test system: NASH/MASH; conditions: NASH/MASH trials; cited from earlier work
[7] = test system: C57BL/6J mice fed a high-fat/fructose/cholesterol diet; experiment: Reversal of established diet-induced, biopsy-confirmed NASH in mice (HFFCD 44 weeks + 8 weeks treatment); type: in vivo, mouse; conditions: pirfenidone co-administered with Compound 002-386, 8 weeks
Excerpt: C57BL/6J mice were fed a high-fat/fructose/cholesterol diet (HFFCD) for 44 weeks. For an additional eight weeks, animals continued a high-fat/fructose/cholesterol diet and received oral once-per-day treatments of either Compound 002-386, the anti-fibrotic pirfenidone, both Compound 002-386 and pirfenidone, or vehicle control. At the end of the study, analyses included histological assessment (NAFLD Activity Score (NAS) and Fibrosis Stage), gene expression (liver) total triglyceride and cholesterol content (liver and plasma), levels of alanine transaminase (ALT), and aspartate transaminase (AST) in plasma and serum cytokine levels. […]
Blood and plasma assays (triglycerides (TG), total-cholesterol (TC), alanine transaminase (ALT), aspartate transaminase (AST)): Blood samples were collected in heparinized tubes and plasma was separated and stored at −80° C. until analysis. TG, TC, ALT, AST were measured using commercial kits (Roche Diagnostics, Germany) on the Cobas™ C-501 autoanalyzer according to the manufacturer's instructions.
NAFLD activity score (NAS) and fibrosis stage: Liver samples were fixed in formalin, paraffin embedded, and sections were stained with hematoxylin and eosin (H&E) and Sirius Red. Samples were scored for NAS and fibrosis stage (outlined below) using of the clinical criteria outlined by Kleiner et al. 2005. […]

[8] = test system: NASH/MASH; conditions: cited from earlier work

For N#Cc1ccc(C2(F)CCN(C(=O)c3ccc(Cl)c(NC(=O)c4ccc(N5CCC5)nc4)c3)CC2)nc1 [Compound 001-57], the pIC50 [1] was 7.52.

For CCc1cc(C)c(-c2ncc(C3CCOC3)[nH]2)cc1C(=O)N1CCC(c2ccc(C#N)cc2)CC1 (stereo not shown) [Compound 001-192], the pIC50 [1] was 6.52.

CCc1nnc(-c2cc(C(=O)N3CCC(c4ccc(C#N)cc4)CC3)c(C)cc2C2CC(F)(F)C2)o1 [Compound 001-231] gave a pIC50 [1] of 6.52.

Work on CC(C)CNC(=O)Nc1cc(C(=O)N2CCC(c3ccc(C#N)cn3)CC2)cnn1 [Compound 001-305] yielded a pIC50 [1] of less than 4.30.

With CC(C)c1cc(Oc2c(Cl)cc(-n3nc(C#N)c(=O)[nH]c3=O)cc2Cl)n[nH]c1=O [Compound A, resmetirom] the collagen production [2] was “did not display the same effect”, the “lobular inflammation, 1-point RR” value [3] was 8% and the “steatosis, RR for 1-point reduction” value [3] was 50%.

For COCc1[nH]c(C(F)(F)F)nc1-c1cc(C(=O)N2CC(c3ccc(C#N)cc3)C2)c(C)cc1C [TVB-3664], the “plasma ALT/AST” value [4] was “rapidly reduced”, the plasma total cholesterols [4] was “rapidly reduced” and the plasma triglycerides [4] was “rapidly reduced”. For the same molecule, the LDL-C [4] was “significantly reduced”, the VLDL-C [4] was “significantly reduced” and the “lobular inflammation, 1-point RR” value [3] was 42%. The “steatosis, RR for 1-point reduction” value [3] was 17% and the “response rate (RR) for reduction of NAS ≥2-points” value [3] was 33%.

In the case of Cc1nnc(-c2cc(C(=O)N3CCC(c4ccc(C#N)cc4)CC3)c(C)cc2C2CCC2)[nH]1 [denifanstat], the collagen production [2] is listed as “decreased”, the “plasminogen 1 (PAI-1) secretion” value [5] is listed as “decreased” and the “liver fat and biomarkers associated with inflammation and fibrosis” value [6] is listed as “improvements in liver fat and biomarkers associated with inflammation and fibrosis”.

With Cc1ccc(=O)n(-c2ccccc2)c1 [pirfenidone] the liver fibrosis [7] was “further reduced liver fibrosis”.

For CC(C)c1cc(Oc2c(Cl)cc(-n3nc(C#N)c(=O)[nH]c3=O)cc2Cl)n[nH]c1=O [resmetirom], the “NASH/MASH resolution and fibrosis improvement” value ([8]; Phase III clinical trial) is listed as “significant NASH/MASH resolution and fibrosis improvement”, the histology response rates ([8]; human, in vivo) is listed as less than 50% and the “plasminogen 1 (PAI-1) secretion” value [5] is listed as “not”. For the same molecule, the “plasma ALT/AST” value [4] was “rapidly reduced”, the plasma total cholesterols [4] was “rapidly reduced” and the plasma triglycerides [4] was “rapidly reduced”. For the same molecule, the LDL-C [4] was “significantly reduced”, the VLDL-C [4] was “significantly reduced” and the “response rate (RR) for reduction of NAS ≥2-points” value [3] was 25%.
